In patent publication US12570642B2, “GLP-IR modulating compounds” (Gilead Sciences, Inc., priority 2021, dated 2026):

Biological target: GLP-1R (Homo sapiens, UniProt P43220)
Test: GLP-1R Activation - cAMP Assay
Assay type: cell-based
Settings: each compound run on one of the two cAMP assays (Assay 1 or Assay 2, not specified)
Procedure: GLP-1R Activation—cAMP Assay 1
GLP-1R activation by compounds of the present disclosure were quantified by measuring cAMP increase in CHO cells stably expressing GLP-1R (MultiSpan product #C1267-1a). The cells were harvested and plated in growth medium (DMEM/F-12 (Corning product #10-090-CV) supplemented with 10% FBS (HyClone product #SH30071-03), penicillin/streptomycin (Corning product #30-002CI) and 10 μg/ml puromycin (Gibco product #A11138-03)) at 1,000 cells/well in a 384-well plate (Greiner product #781080). The cells were then incubated overnight at 37° C., 5% CO2. The next day, the medium was removed and the cells were washed with DPBS (Corning product #21-031-CM) before adding the assay medium (HBSS, Corning product #21-023-CV) with 20 mM Hepes (Gibco product #15630-080) and 0.1% BSA (Rockland Immunochemicals product #BSA-1000)). Following the medium change, the cells were incubated for 1 hour at 37° C., 5% CO2. The tested GLP-1 compound was added to the cells in a 10-point dose response followed by a 30 minutes incubation at 37° C., 5% CO2. cAMP concentration increase was then detected using Cisbio's cAMP Gs Dynamic Kit (product #62AM4PEC) according to the manufacturer's protocol. The response was plotted against the log of the agonist concentration and fitted to a sigmoidal equation to determine the EC50.

[1] = cAMP increase in CHO cells stably expressing GLP-1R

Chain of GLP-1R (P43220 24-463): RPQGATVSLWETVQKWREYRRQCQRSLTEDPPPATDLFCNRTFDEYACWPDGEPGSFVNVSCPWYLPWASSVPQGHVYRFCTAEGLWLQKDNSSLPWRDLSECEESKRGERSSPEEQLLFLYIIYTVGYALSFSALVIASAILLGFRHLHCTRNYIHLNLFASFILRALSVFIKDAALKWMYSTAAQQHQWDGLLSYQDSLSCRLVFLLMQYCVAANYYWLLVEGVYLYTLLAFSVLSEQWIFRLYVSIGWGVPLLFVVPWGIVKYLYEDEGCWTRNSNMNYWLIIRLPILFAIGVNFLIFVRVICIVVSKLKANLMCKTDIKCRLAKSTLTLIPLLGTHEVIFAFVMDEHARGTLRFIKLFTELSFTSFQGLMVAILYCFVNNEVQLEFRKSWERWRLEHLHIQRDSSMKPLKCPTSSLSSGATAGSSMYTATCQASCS

Compound | EC50 ([…]) [nM] | EC50 [1] [nM]
CC(C)(C)OC(=O)N[C@@H]1COC[C@@H]1n1c(Cc2cc(F)c(-c3cccc(OCc4ccc(C#N)cc4F)n3)cc2F)nc2ccc(C(=O)O)cc21 (racemic) [Example 72, 1-((3R,4S)-4-((tert-butoxycarbonyl)amino)tetrahydrofuran-3-yl)-2-(4-(6-((4-cyano-2-fluorobenzyl)oxy)pyridin-2-yl)-2,5-difluorobenzyl)-1H-benzo[d]imidazole-6-carboxylic Acid] | 37 | –
C[C@H]1OCC[C@H]1n1c(Cc2cc(F)c(-c3cccc(OCc4ccc(C#N)cc4F)n3)cc2F)nc2ccc(C(=O)O)cc21 (racemic) [Example 73, 2-(4-(6-((4-cyano-2-fluorobenzyl)oxy)pyridin-2-yl)-2,5-difluorobenzyl)-1-((2R,3R)-2-methyltetrahydrofuran-3-yl)-1H-benzo[d]imidazole-6-carboxylic Acid] | – | 2.4
CNC(=O)[C@@H]1COC[C@@H]1n1c(Cc2cc(F)c(-c3cccc(OCc4ccc(C#N)cc4F)n3)cc2F)nc2ccc(C(=O)O)cc21 (racemic) [Example 75, 2-(4-(6-((4-cyano-2-fluorobenzyl)oxy)pyridin-2-yl)-2,5-difluorobenzyl)-1-((3R,4S)-4-(methylcarbamoyl)tetrahydrofuran-3-yl)-1H-benzo[d]imidazole-6-carboxylic Acid] | – | 15.6
CN(C)C(=O)[C@@H]1COC[C@@H]1n1c(Cc2cc(F)c(-c3cccc(OCc4ccc(C#N)cc4F)n3)cc2F)nc2ccc(C(=O)O)cc21 (racemic) [Example 76, 2-(4-(6-((4-cyano-2-fluorobenzyl)oxy)pyridin-2-yl)-2,5-difluorobenzyl)-1-((3R,4S)-4-(dimethylcarbamoyl)tetrahydrofuran-3-yl)-1H-benzo[d]imidazole-6-carboxylic Acid] | – | 100
N#Cc1ccc(COc2cccc(-c3cc(F)c(Cc4nc5ccc(C(=O)O)cc5n4[C@@H]4COC[C@H]4F)cc3F)n2)c(F)c1 (racemic) [Example 77, 2-(4-(6-((4-cyano-2-fluorobenzyl)oxy)pyridin-2-yl)-2,5-difluorobenzyl)-1-((3R,4S)-4-fluorotetrahydrofuran-3-yl)-1H-benzo[d]imidazole-6-carboxylic Acid] | – | 1.91
COC[C@H]1COC[C@H]1n1c(Cc2cc(F)c(-c3cccc(OCc4ccc(C#N)cc4F)n3)cc2F)nc2ccc(C(=O)O)cc21 (racemic) [Example 184, 2-(4-(6-((4-cyano-2-fluorobenzyl)oxy)pyridin-2-yl)-2,5-difluorobenzyl)-1-((3S,4S)-4-(methoxymethyl)tetrahydrofuran-3-yl)-1H-benzo[d]imidazole-6-carboxylic Acid] | – | 0.157
N#Cc1ccc(COc2cccc(-c3cc(F)c(Cc4nc5ccc(C(=O)O)cc5n4C4COC[C@@H]4CO)cc3F)n2)c(F)c1 (mixture of isomers) [Example 216, 2-(4-(6-((4-cyano-2-fluorobenzyl)oxy)pyridin-2-yl)-2,5-difluorobenzyl)-1-((3S,4S)-4-(hydroxymethyl)tetrahydrofuran-3-yl)-1H-benzo[d]imidazole-6-carboxylic acid] | – | 0.056
N#Cc1ccc(COc2cccc(-c3cc(F)c(Cc4nc5ccc(C(=O)O)cc5n4C4COC[C@H]4CO)cc3F)n2)c(F)c1 (mixture of isomers) [Example 217, 2-(4-(6-((4-cyano-2-fluorobenzyl)oxy)pyridin-2-yl)-2,5-difluorobenzyl)-1-((3S,4R)-4-(hydroxymethyl)tetrahydrofuran-3-yl)-1H-benzo[d]imidazole-6-carboxylic acid] | – | 1.11
CO[C@@H]1COCC1n1c(Cc2cc(F)c(-c3cccc(OCc4ccc(C#N)cc4F)n3)cc2F)nc2c(F)cc(C(=O)O)cc21 (mixture of isomers) [Example 256, 2-(4-(6-((4-cyano-2-fluorobenzyl)oxy)pyridin-2-yl)-2,5-difluorobenzyl)-4-fluoro-1-((4S)-4-methoxytetrahydrofuran-3-yl)-1H-benzo[d]imidazole-6-carboxylic acid] | – | 0.117
